These results are taken from patent publication US10676767B2, “Methods and compositions for making ephedrine and related alkaloid compounds” (priority 2015, dated 2020).

In test [1] the test system is N-methyltransferase (NMT). Description: Standard enzyme assay with purified E. coli-produced NMT, N-methylated product measured by LC-MS. The settings on record: for acceptance as substrate for N-methylation by NMT (FIG. 3): 1 mM alkaloid substrate, 1 mM SAM, 100 μg/mL purified NMT, 4 h at 37° C., pH 8.5. In kind it is biochemical, Ephedra sinica. As for the experimental part:
Open reading frames (ORFs) of N-methyltransferase (NMT) enzyme sequences (i.e. SEQ. ID NO: 1 and SEQ. ID NO: 2) were subcloned into Escherichia coli expression vector pET47b (Merck Millipore) in-frame with vector-encoded His-tag for downstream purification purposes. Constructs were transformed into E. coli strains ArcticExpress (Agilent Technologies) or Rosetta (Novagen). Recombinant His-tagged protein production was performed according to standard procedures (Farrow et al. 2013. J. Biol. Chem. 288: 28977) and manufacturer's instructions. Briefly, cultures of E. coli harboring pET47b were grown on an orbital shaker (200 rpm) to log phase in 1 L of LB medium containing gentamicin, streptomycin and kanamycin (Arctic Express) or chloramphenicol and kanamycin (Rosetta). Recombinant His-tagged protein production was initiated by the addition of 1 mM isopropyl β-D-1-thiogalactopyranoside (IPTG). To produce NMT, cultures were grown for 24 h at 15° C.
For purification, bacterial pellets obtained following induction/incubation were resuspened in 10 mL of resuspension buffer (50 mM Tris pH 8.5, 10% v/v glycerol, 1% w/v polyvinylpyrrolidone, 5 mM dithiothreitol) and lysed at 4° C. using a French pressure cell (1,000 psi). After centrifugation (10,000 g) to remove insoluble debris, the supernatant was incubated on ice with buffer-equilibrated Talon resin (Clontech) on an orbital shaker (60 rpm) for 60 minutes. The protein-charged resin was washed twice with 10 mL of cold resuspension buffer containing 2.5 mM imidazole, and proteins were eluted stepwise with increasing concentrations (10 to 200 mM) of imidazole in resuspension buffer. Total proteins from a 40 mM imidazole elution were desalted using a PD-10 column (EMD Millipore) and resuspension buffer free of imidazole. Recombinant proteins were analyzed by SDS-PAGE to assess yield and purity, and immunoblot analyses were conducted using α-His primary antibodies and goat-anti-mouse, horseradish peroxidase-conjugated secondary antibodies. Total protein concentration was determined using BCA Protein Assay kit (Thermo Scientific). Calculated protein concentrations were adjusted on gel densitometry. […] Specifically, standard enzyme reactions consisted of 50 mM Tris pH 8.5, 10 v/v glycerol, 1% w/v polyvinylpyrrolidone, 5 mM dithiothreitol, 1 mM alkaloid substrate, 1 mM SAM (S-adenosylmethionine) and 100 μg/mL purified NMT protein in a total of 100 μl reaction volume. Reactions were incubated for 4 h at 37° C., and stopped via 1) basification of the reaction mixture to pH 10-11, and 2) immediate addition of 1 mL ethyl acetate. Quenched reactions were vortexed and centrifuged (10,000 rpm) to separate organic and aqueous phases, and organic phase was carefully drawn off, placed in a new tube, reduced to dryness under vacuum, and resuspended in 500 μL of Solvent A (10 mM ammonium acetate pH 5.5, 5% v/v methanol). The resuspensions were centrifuged (10,000 rpm) prior to analysis by LC-MS to remove insoluble matter.
Ten μL sample was injected for LC-MS analysis using an Agilent 6410B triple quadrupole mass analyzer equipped with a 1200 Agilent HPCL system. Samples were fractionated using a previously described LC-ESI-MS/MS method [J. Chromatography B. 879:727, 2011] employing a Prodigy Phenyl-3 column (Phenomenex) which separated enantiomeric pairs (e.g. pseudoephedrine/ephedrine). Briefly, the HPLC gradient began as 95% Solvent A (Solvent B=100% methanol) for 1 minute at a flow rate of 0.2 ml/min, and decreased to 30% Solvent A/70% Solvent B over 19 minutes, then graded to 10% Solvent A/[…] over 0.5 minutes, then immediately returned to 100% Solvent A and equilibrated for 5 minutes. […] ESI and MS conditions were essentially the same as described [J. Chromatography B. 879:727, 2011].

The subject of another test is plant-derived NMT. Briefly: NMT activity assay with Ephedra sinica plant tissue extract. Format: biochemical. The settings on record: standard assay conditions, 4 hour assay, Ephedra sinica-derived protein. As for the experimental part:
For purification, bacterial pellets obtained following induction/incubation were resuspened in 10 mL of resuspension buffer (50 mM Tris pH 8.5, 10% v/v glycerol, 1% w/v polyvinylpyrrolidone, 5 mM dithiothreitol) and lysed at 4° C. using a French pressure cell (1,000 psi). After centrifugation (10,000 g) to remove insoluble debris, the supernatant was incubated on ice with buffer-equilibrated Talon resin (Clontech) on an orbital shaker (60 rpm) for 60 minutes. The protein-charged resin was washed twice with 10 mL of cold resuspension buffer containing 2.5 mM imidazole, and proteins were eluted stepwise with increasing concentrations (10 to 200 mM) of imidazole in resuspension buffer. Total proteins from a 40 mM imidazole elution were desalted using a PD-10 column (EMD Millipore) and resuspension buffer free of imidazole. Recombinant proteins were analyzed by SDS-PAGE to assess yield and purity, and immunoblot analyses were conducted using α-His primary antibodies and goat-anti-mouse, horseradish peroxidase-conjugated secondary antibodies. Total protein concentration was determined using BCA Protein Assay kit (Thermo Scientific). Calculated protein concentrations were adjusted on gel densitometry. Standard enzyme assays included approximately 100 μg/mL purified NMT protein, which was determined to be in the linear range of catalyst performance. […]

Turning to `CNCC(O)c1ccc(O)cc1` (stereo not shown) [Synephrine, synephrine], the “acceptance as substrate for N-methylation by NMT (FIG. 3)” value (shortened to “acceptance as substrate”) in test [1] is given as “accepted as substrates”. `C[C@H](N)C(=O)c1ccccc1` [cathinone]: the “acceptance as substrate” value in test [1] is “acting as substrate”. For the compound `CN[C@@H](C)[C@H](O)c1ccccc1` [ephedrine], the “acceptance as substrate” value in test [1] is listed as “accepts”. In test [1] (standard assay conditions, product quantified with standard curves as ng alkaloid per μg protein per hour), the “effectiveness as NMT substrate, absolute product quantification (FIG. 4)” value is “somewhat lower”. Take `CC(N)C(O)c1ccccc1` (stereo not shown) [norephedrine]: the “conversion by plant-derived extract” value in the test on plant-derived NMT is recorded as “yielding ephedrine at comparable levels to E. coli-produced NMT”.

Turning to `NCC(O)c1ccc(O)cc1` (stereo not shown) [octopamine], the “acceptance as substrate” value in test [1] is reported as “accepted as substrates”. As to `CN[C@@H](C)[C@@H](O)c1ccccc1` [pseudoephedrine], the “acceptance as substrate” value in test [1] was “accepts”.
